Assay results from patent publication US20210403485A1, “PYRAZOLOPYRIMIDINE DERIVATIVE AS SELECTIVE TRK INHIBITOR” (SHANDONG LUYE PHARMACEUTICAL CO., LTD., priority 2018, published 2021).
Like-named read-outs stand apart in the source and are kept apart here.

What was measured:
[1] = Pharmacokinetic test of compounds in rats (plasma, LC/MS/MS); format: in vivo, male SD rats; conditions: for AUC(0-t): read-out: Area under the curve AUC0-last
Experimental: Experimental purpose: male SD rats aged 7-9 weeks were selected as test animals, and the drug concentrations of the compounds in plasma at different time points after single intravenous injection (IV) and intragastric administration (PO) of the compounds were measured by an LC/MS/MS method, so that the pharmacokinetic behavior of the compounds disclosed herein in rats was studied, and the pharmacokinetic characteristic of the compounds was evaluated.
Drug preparation: the compounds were all prepared into clear solution by taking 5% DMSO+10% solutol+85% water as vehicle, and were used for administration in IV and PO groups. The dose of each compound administered was: IV, 3 mg/kg; PO, 10 mg/kg.

[2] = system: Ba/F3 ETV6-NTRK3 cells; assay: Efficacy test in animals: subcutaneous xenograft, intragastric administration; format: in vivo, nude mice; conditions: for TGI (tumor growth inhibition rate): day of dissection; for Tumor inhibition rate (by tumor weight) / Tumor weight: end of the test
Experimental: (§1) Cells in the logarithmic growth phase were collected and resuspended in serum-free medium to a cell concentration of 2-4×10^7 cells/mL. An equal volume of matrigel was added to the cell suspension to achieve a final cell concentration of 1-2×10^7 cells/mL. 0.2 mL of tumor cell suspension was subcutaneously inoculated at the scapula of each nude mouse with the inoculation amount of 2-4×10^6 cells/mouse to prepare the animal models.

[3] = system: Ba/F3 ETV6-NTRK3-G623R cells; assay: as above; format: in vivo, nude mice; conditions: for TGI (tumor growth inhibition rate): day of dissection; for Tumor inhibition rate (by tumor weight) / Tumor weight: end of the test
Experimental: as §1

[4] = target: T1, Ba/F3 LMNA-NTRK1-F589L (Homo sapiens, UniProt P04629, F589L, cells depend on it); assay: Inhibitory activity against cell proliferation (CellTiter-Glo, 72 hours); format: cell-based; conditions: read-out: Half maximal inhibitory concentration IC50 of cells, Ba/F3 LMNA-NTRK1-F589L
T1 construct: fused on or other part: N-terminal part of LMNA as fusion partner (part of the key); P02545 (Prelamin-A/C)
Procedure, shortened: (§2)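 Log-phase Ba/F3 cells (trypan blue viability above 90%) were treated in triplicate with a 9-point, 3-fold compound series. ATP-dependent luminescence was read after CellTiter-Glo addition, and IC50 values came from nonlinear sigmoidal dose-response fits.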

[5] = target: T2, Ba/F3 LMNA-NTRK1-WT (Homo sapiens, UniProt P04629); assay: as above; format: cell-based; conditions: read-out: Half maximal inhibitory concentration IC50 of cells, Ba/F3 LMNA-NTRK1-WT
T2 construct: fused on or other part: N-terminal part of LMNA as fusion partner (part of the key); P02545 (Prelamin-A/C)
Procedure, shortened: as §2

[6] = target: T3, BaF3 ETV6-NTRK3-WT (Homo sapiens, UniProt Q16288); assay: as above; format: cell-based; conditions: read-out: Half maximal inhibitory concentration IC50 of cells, BaF3 ETV6-NTRK3-WT
T3 construct: fused on or other part: N-terminal part of ETV6 (TEL) as fusion partner (part of the key); P41212 (Transcription factor ETV6)
Procedure, shortened: as §2

[7] = target: T4, BaF3 LMNA-NTRK1-G595R (Homo sapiens, UniProt P04629, G595R, cells depend on it); assay: as above; format: cell-based; conditions: read-out: Half maximal inhibitory concentration IC50 of cells, BaF3 LMNA-NTRK1-G595R
T4 construct: fused on or other part: N-terminal part of LMNA as fusion partner (part of the key); P02545 (Prelamin-A/C)
Procedure, shortened: as §2

[8] = target: T5, BaF3 LMNA-NTRK1-G667A (Homo sapiens, UniProt P04629, G667A, cells depend on it); assay: as above; format: cell-based; conditions: read-out: Half maximal inhibitory concentration IC50 of cells, BaF3 LMNA-NTRK1-G667A
T5 construct: fused on or other part: N-terminal part of LMNA as fusion partner (part of the key); P02545 (Prelamin-A/C)
Procedure, shortened: as §2

T1 sequence (P04629 whole entry F589L, the tested form may be a part): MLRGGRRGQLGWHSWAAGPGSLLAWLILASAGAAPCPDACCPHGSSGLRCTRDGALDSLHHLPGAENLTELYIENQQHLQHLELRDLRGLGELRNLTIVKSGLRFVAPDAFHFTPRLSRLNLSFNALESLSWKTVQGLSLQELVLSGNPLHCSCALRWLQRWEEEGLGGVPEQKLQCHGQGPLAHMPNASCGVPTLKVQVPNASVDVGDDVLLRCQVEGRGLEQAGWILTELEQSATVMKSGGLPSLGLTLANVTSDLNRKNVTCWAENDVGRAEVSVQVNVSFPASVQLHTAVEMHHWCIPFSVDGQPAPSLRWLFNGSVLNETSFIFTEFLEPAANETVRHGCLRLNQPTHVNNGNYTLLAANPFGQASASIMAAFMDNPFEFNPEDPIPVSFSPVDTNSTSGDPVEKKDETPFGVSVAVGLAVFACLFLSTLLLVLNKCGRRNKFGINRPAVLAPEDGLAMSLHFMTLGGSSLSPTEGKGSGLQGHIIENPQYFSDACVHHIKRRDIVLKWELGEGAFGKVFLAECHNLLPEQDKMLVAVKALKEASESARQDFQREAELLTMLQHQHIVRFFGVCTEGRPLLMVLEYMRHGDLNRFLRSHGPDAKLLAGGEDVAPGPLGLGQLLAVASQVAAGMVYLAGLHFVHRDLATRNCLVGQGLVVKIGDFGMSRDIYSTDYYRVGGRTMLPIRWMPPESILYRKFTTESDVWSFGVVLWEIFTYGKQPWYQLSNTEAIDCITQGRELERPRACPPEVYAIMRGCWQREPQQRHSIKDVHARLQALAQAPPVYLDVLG
T5 sequence (P04629 whole entry G667A, the tested form may be a part): as the sequence (P04629 whole entry F589L, the tested form may be a part) above, with L589F, G667A counted along it
T3 sequence (Q16288 whole entry, change not shown, the tested form may be a part): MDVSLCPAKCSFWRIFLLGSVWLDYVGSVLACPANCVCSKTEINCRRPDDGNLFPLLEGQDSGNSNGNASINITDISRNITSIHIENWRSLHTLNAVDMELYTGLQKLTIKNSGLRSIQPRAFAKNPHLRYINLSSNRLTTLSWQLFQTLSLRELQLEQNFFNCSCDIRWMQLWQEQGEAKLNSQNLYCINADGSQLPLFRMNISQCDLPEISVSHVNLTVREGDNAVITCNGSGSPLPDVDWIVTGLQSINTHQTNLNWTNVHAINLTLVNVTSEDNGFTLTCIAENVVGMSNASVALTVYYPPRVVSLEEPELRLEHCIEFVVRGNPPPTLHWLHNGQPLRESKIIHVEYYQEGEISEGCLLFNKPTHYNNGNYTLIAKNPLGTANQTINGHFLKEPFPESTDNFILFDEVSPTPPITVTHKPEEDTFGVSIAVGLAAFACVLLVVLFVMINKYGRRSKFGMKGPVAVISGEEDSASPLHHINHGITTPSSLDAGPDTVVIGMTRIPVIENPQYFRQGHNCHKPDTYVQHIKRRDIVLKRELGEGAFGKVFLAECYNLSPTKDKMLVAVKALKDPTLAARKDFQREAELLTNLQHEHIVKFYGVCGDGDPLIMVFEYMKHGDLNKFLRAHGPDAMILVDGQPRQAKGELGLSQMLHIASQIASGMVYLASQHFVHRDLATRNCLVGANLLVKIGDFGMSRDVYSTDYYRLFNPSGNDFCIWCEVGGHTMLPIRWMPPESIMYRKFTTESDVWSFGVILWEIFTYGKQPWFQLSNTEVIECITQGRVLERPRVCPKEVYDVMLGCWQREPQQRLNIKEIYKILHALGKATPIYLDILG
T2 sequence (P04629 whole entry, change not shown, the tested form may be a part): as the sequence (P04629 whole entry F589L, the tested form may be a part) above, with L589F counted along it
T4 sequence (P04629 whole entry G595R, the tested form may be a part): as the sequence (P04629 whole entry F589L, the tested form may be a part) above, with L589F, G595R counted along it

O=C(Nc1cnn2ccc(N3CCC[C@@H]3c3cc(F)ccc3F)nc12)N1CC[C@H](O)C1 [LOXO-101, larotrectinib, reference compound]
Apparent clearance Cl ([1]; IV, 3 mg/kg): 45.6 mL/min/kg
Vd ([1]; male, SD, rat, plasma, IV, 3 mg/kg, read-out: Apparent volume of distribution Vd): 1.7 L/kg
AUC(0-t) ([1]; male, SD, rat, plasma, IV, 3 mg/kg): 1.7 µM·h
half-life ([1]; male, SD, rat, plasma, IV, 3 mg/kg, read-out: Half-life T1/2 (converted)): 36 min
AUC(0-t) ([1]; male, SD, rat, plasma, PO, 10 mg/kg): 1.93 µM·h
bioavailability ([1]; male, SD, rat, plasma, PO, 10 mg/kg, read-out: Bioavailability F %): 23%
Cmax ([1]; male, SD, rat, plasma, PO, 10 mg/kg, read-out: Peak concentration Cmax): 944 nM
Tmax ([1]; male, SD, rat, plasma, PO, 10 mg/kg, read-out: Time to peak Tmax): 48 min
Tumor volume ([2]; Day 0, 60 mg/kg qd): 303.89 ± 50.02 mm^3
Tumor volume ([2]; Day 3, 60 mg/kg qd): 510.07 ± 224.94 mm^3
Tumor volume ([2]; Day 5, 60 mg/kg qd): 490.32 ± 170.06 mm^3
Tumor volume ([2]; Day 7, 60 mg/kg qd): 731.42 ± 372.59 mm^3
Tumor volume ([2]; Day 9, 60 mg/kg qd): 1289.62 ± 757.75 mm^3
Tumor volume ([2]; Day 11, 60 mg/kg qd): 1361.88 ± 710.90 mm^3
TGI (tumor growth inhibition rate) ([2]; 60 mg/kg qd): 63.87%
Tumor inhibition rate (by tumor weight) ([2]; 60 mg/kg qd): 63.49%
Tumor weight ([2]; 60 mg/kg qd): 0.64 ± 0.44 g
Tumor volume ([3]; Day 0, 60 mg/kg qd): 200.39 ± 31.65 mm^3
Tumor volume ([3]; Day 3, 60 mg/kg qd): 552.34 ± 219.25 mm^3
Tumor volume ([3]; Day 5, 60 mg/kg qd): 1025.59 ± 347.93 mm^3
Tumor volume ([3]; Day 7, 60 mg/kg qd): 1349.08 ± 541.06 mm^3
Tumor volume ([3]; Day 9, 60 mg/kg qd): 1822.21 ± 755.31 mm^3
Tumor volume ([3]; Day 11, 60 mg/kg qd): 2375.84 ± 852.18 mm^3
TGI (tumor growth inhibition rate) ([3]; 60 mg/kg qd): 31.65%
Tumor inhibition rate (by tumor weight) ([3]; 60 mg/kg qd): 25.27%
Tumor weight ([3]; 60 mg/kg qd): 1.28 ± 0.62 g

C[C@@H]1CCc2ncc(F)cc2[C@H]2CCCN2c2ccn3ncc(c3n2)C(=O)N1 [LOXO-195, reference compound]
GI50 [4]: 44 nM
GI50 [5]: 4.9 nM
GI50 [6]: 2.6 nM
GI50 [7]: 6.8 nM
GI50 [8]: 24.4 nM
Tumor volume ([2]; Day 0, 100 mg/kg bid): 303.85 ± 42.83 mm^3
Tumor volume ([2]; Day 3, 100 mg/kg bid): 351.06 ± 144.65 mm^3
Tumor volume ([2]; Day 5, 100 mg/kg bid): 216.92 ± 62.19 mm^3
Tumor volume ([2]; Day 7, 100 mg/kg bid): 174.13 ± 102.49 mm^3
Tumor volume ([2]; Day 9, 100 mg/kg bid): 206.69 ± 107.53 mm^3
Tumor volume ([2]; Day 11, 100 mg/kg bid): 196.07 ± 88.87 mm^3
TGI (tumor growth inhibition rate) ([2]; 100 mg/kg bid): 94.80%
Tumor inhibition rate (by tumor weight) ([2]; 100 mg/kg bid): 94.86%
Tumor weight ([2]; 100 mg/kg bid): 0.09 ± 0.07 g
Tumor volume ([3]; Day 0, 100 mg/kg bid): 200.27 ± 30.38 mm^3
Tumor volume ([3]; Day 3, 100 mg/kg bid): 282.91 ± 82.61 mm^3
Tumor volume ([3]; Day 5, 100 mg/kg bid): 306.00 ± 115.66 mm^3
Tumor volume ([3]; Day 7, 100 mg/kg bid): 364.50 ± 212.47 mm^3
Tumor volume ([3]; Day 9, 100 mg/kg bid): 334.53 ± 184.22 mm^3
Tumor volume ([3]; Day 11, 100 mg/kg bid): 345.18 ± 306.01 mm^3
TGI (tumor growth inhibition rate) ([3]; 100 mg/kg bid): 90.07%
Tumor inhibition rate (by tumor weight) ([3]; 100 mg/kg bid): 91.50%
Tumor weight ([3]; 100 mg/kg bid): 0.15 ± 0.14 g
